Test results published in patent publication US10932454B2, “LDL receptor gene knockout, genetically-engineered hamster” (HEBEI INVIVO BIOTECH INC, priority 2016, dated 2021).
Entries after “also recorded” stand apart in the source; their conditions may differ.

Experiments:
[1] = system: LDL-R gene deficient Δ194 bp heterozygous hamsters; assay: High-fat diet feeding with intragastric ezetimibe in LDL-R+/- hamsters; plasma lipids, lipoprotein FPLC, body weight; format: in vivo, golden Syrian hamster
Experimental: (§1) The high-fat diet used in the study was a normal rodent diet containing 0.5% cholesterol and 10% lard. The dose of ezetimibe was 2 mg/kg body weight, administered by intragastric administration, and the control group was given tri-distilled water. Plasma was collected before high-fat diet feeding, after two weeks of high-fat diet feeding, before administration and after two weeks of administration, respectively. The hamsters were fasted for 12 hours at night, anesthetized by intraperitoneal injection of pentobarbital sodium, and about 1 ml of blood was collected from the posterior orbital vein, and heparin was used for anticoagulation. A plasma triglyceride assay kit and a total cholesterol assay kit (Biosino Bio-Technology and Science Inc.) were used to detect plasma triglyceride and total cholesterol levels. High-density lipoprotein cholesterol (HDL-C) was tested for cholesterol levels after removal of apoB-containing lipoproteins by polyethylene glycol precipitation. The lipid component of plasma lipoprotein was detected by using fast protein liquid chromatography (FPLC) instrument of Amersham Biocsciences, USA, and the plasma lipoprotein fraction was firstly separated by superose 6 HR10/30 column. 200 μl of plasma was loaded through a 0.22 μm syringe filter, and the separated components were automatically collected at a rate of 0.5 mL per minute, 500 μl per component, for a total of 35 components. The above cholesterol detection kit was applied to each component to detect the cholesterol content, and a plasma lipoprotein profile was prepared.

[2] = system: wild type control hamsters; assay: High-fat diet feeding with intragastric ezetimibe in wild type hamsters; plasma lipids; format: in vivo, golden Syrian hamster; details: WT hamsters, high-fat diet plus 2 mg/kg ezetimibe intragastric daily for two weeks
Experimental: as §1, with “200 μl of plasma was loaded through a 0.22 μm syringe filter, and the separated components were automatically collected at a rate of 0.5 mL per minute, 500 μl per component, for a total of 35 components. The above cholesterol detection kit was applied to each component to detect the cholesterol content, and a plasma lipoprotein profile was prepared.” left out

[3] = 2 mg/kg intragastric daily, two weeks, high-fat diet

O=C1[C@H](CC[C@H](O)c2ccc(F)cc2)[C@@H](c2ccc(O)cc2)N1c1ccc(F)cc1 [ezetimibe]
effect on hyperlipidemia of LDL-R knockout hamsters ([1]; 2 mg/kg intragastric daily, high-fat diet): significantly reverses hyperlipidemia; also recorded: significantly reversed hypelipidemia
HDL cholesterol in plasma (FPLC) [1, 3]: not significantly changed; also recorded: little effect on HDL
VLDL and LDL cholesterol in plasma (FPLC) [1, 3]: decrease of VLDL-C and LDL-C; also recorded: mainly decreased VLDL and LDL in plasma
body weight, ezetimibe-administered group vs high-fat diet feeding group ([1]; 2 mg/kg intragastric daily, two weeks, high-fat diet, each group of hamsters (WT and LDL-R+/-)): no significant difference
plasma cholesterol change after administration (in words) ([1]; LDL-R heterozygous hamster on high-fat diet (0.5% cholesterol, 10% fat), ezetimibe 2 mg/kg): decreased to the level of the wild type hamster fed on common diet
triglyceride level after administration ([1]; LDL-R+/- hamsters, high-fat diet plus 2 mg/kg ezetimibe intragastric daily for two weeks, high-fat diet only 658 mg/dL): 225 mg/dL
plasma cholesterol level after administration ([1]; LDL-R+/- hamsters, high-fat diet plus 2 mg/kg ezetimibe intragastric daily for two weeks, high-fat diet only 1864 mg/dL): 157 mg/dL
triglyceride level after administration ([2]; high-fat diet only 413 mg/dL): 157 mg/dL
plasma cholesterol level after administration ([2]; high-fat diet only 513 mg/dL): 111 mg/dL
